The subject of one experiment is moulds. Description: Mould formation on stored bread product (visual observation). As to conditions: bread stored at room temperature, relative humidity of 80%, visual observation during 1 month. It is filed as cell-based. Here is the method:
The four above-mentioned doughs were mixed for half a minute at slow speed in a McDuffy mixer and then for 8.5 minutes at high speed in the same mixer. The dough temperature was 26° C. The resting time was 2 minutes (at room temperature). After said resting time 420 grams of each dough was taken, and the doughs (each of 420 grams) were then rounded up softly by hand. The initial proofing time was 6 minutes (at room temperature), after which the doughs were moulded into a certain baking form. The final proofing time (at 40° C. and a relative humidity of 80%) was determined, which appeared to be dependent on the type of further additive as contained in the four above-mentioned doughs. With “final proofing time” it is herein meant the time period of rising the dough, before baking, to a certain extent being a specific maximum volume. After this final proofing the doughs were baked for 20 minutes in an oven at 210° C. (top oven temperature) and at 230° C. (bottom oven temperature). The four bread products as obtained were then stored at room temperature (and at a relative humidity of 80%). During 1 month it was determined by means of visual observation whether or not moulds were formed on the four bread products.

A further experiment relates to yeast. Description: Final proofing time of dough containing the additive. It is filed as cell-based. As to conditions: 6.5 grams additive in dough; final proofing at 40° C. and relative humidity of 80%; time of rising to a specific maximum volume. Here is the method: Then a dough comprising the following ingredients was prepared: [table] Then a further additive was mixed with the above-mentioned dough: The four above-mentioned doughs were mixed for half a minute at slow speed in a McDuffy mixer and then for 8.5 minutes at high speed in the same mixer. The dough temperature was 26° C. The resting time was 2 minutes (at room temperature). After said resting time 420 grams of each dough was taken, and the doughs (each of 420 grams) were then rounded up softly by hand. The initial proofing time was 6 minutes (at room temperature), after which the doughs were moulded into a certain baking form. The final proofing time (at 40° C. and a relative humidity of 80%) was determined, which appeared to be dependent on the type of further additive as contained in the four above-mentioned doughs. With “final proofing time” it is herein meant the time period of rising the dough, before baking, to a certain extent being a specific maximum volume. After this final proofing the doughs were baked for 20 minutes in an oven at 210° C. (top oven temperature) and at 230° C. (bottom oven temperature). The four bread products as obtained were then stored at room temperature (and at a relative humidity of 80%). During 1 month it was determined by means of visual observation whether or not moulds were formed on the four bread products.

Regarding `CCC(=O)[O-].CCC(=O)[O-].[Ca+2]` [Comparative, calcium propionate], in the experiment on moulds, the “Mould formation on bread product” value is reported as “no”. For the same molecule, the “Final proofing time of dough” value in the experiment on yeast was 90 min.

The values above are taken from US20060198925A1, “Food preservative” (priority 2003, published 2006).
